Values quoted from earlier work in US20090297625A1, “AGENT FOR TREATING EYE DISEASES” (OTKRYTOE AKTSIONERNOE OBSCHESTVO ZAVOD, priority 2006, published 2009).

Settings: administration of lutein as an additive

CC1=C[C@H](O)CC(C)(C)[C@H]1/C=C/C(C)=C/C=C/C(C)=C/C=C/C=C(C)/C=C/C=C(C)/C=C/C1=C(C)C[C@@H](O)CC1(C)C [lutein]
absorption and storage in the macula lutea: well absorbed and stored in the macula lutea
